Reference: patent publication US20220110916A1, “Antioxidant and Use Thereof” (Bioradical Research Institute Corp., priority 2019, published 2022)

Columns and labels:
rat neuroid cells B50 [1] = test: Alleviation of singlet oxygen (Rose Bengal + G-LED) cytotoxicity, Alamar Blue fluorescence; assay type: cell-based; conditions: 200 nmol/l RB + G-LED 5 minutes
Experimental: Edaravone, ED2AP and BisEp-C3 were examined whether they had the function of alleviating neuronopathy. Specifically, singlet oxygen was generated by combining Rose Bengal (RB), which is a sensitizer, with green light (G-LED), and the function of alleviating the cytotoxicity of the generated singlet oxygen was examined with the cellular activity being an indicator.
First, rat neuroid cells B50 were cultured in 12-well dishes at 2×10^5 cells/well (medium: RPMI-1640 medium containing 5% FCS) overnight. After the culturing, the medium of each well was replaced with HBSS (1000 μl/well; phenol red free Ca+, Mg+) containing 200 nmol/l RB and edaravone, ED2AP, or BisEp-C3 having a predetermined concentration (0, 12.5, 25, 50, or 100 μmol/l). The dish was then irradiated with G-LED for 5 minutes to generate singlet oxygen. Thereafter, the medium of each well was replaced with 1000 μl of HBSS and Alamar Blue was added. The dish was then allowed to react for about 2 hours in an incubator at 37° C. and 5% CO2. After the reaction, fluorescence intensity (excitation wavelength: λ-560 nm, fluorescence wavelength: λ-595 nm) was measured with a plate reader (infinite200, Tecan Trading AG). In this experimental system, the higher the cellular activity, the more Alamar Blue is taken up and the higher the fluorescence intensity. As a control, fluorescence intensity was measured in the same manner except that sodium azide (Azide, NaN3) was added instead of the compounds so as to achieve a concentration of 4 mmol/l. As a negative control (NC), fluorescence intensity was measured in the same manner except that RB was not added. The relative value of the fluorescence intensity in the sample to which each compound was added was calculated with the fluorescence intensity of the negative control being 100.

[2] = Water solubility noted at synthesis; assay type: physicochemical; conditions: crystal obtained in Example 1
Experimental: 3.58 g of 3-methyl-1-phenyl-5-pyrazolone (hereinafter, also referred to as “edaravone”), 2.59 g of malonaldehyde dianilide hydrochloride, and 20 ml of ethanol were added to a reactor and dissolved. To the obtained solution, 2.04 g of triethylamine and 0.4 ml of water were added and stirred for 1 hour at room temperature (about 25° C., hereinafter, the same applies). After the stirring, the resultant was further reacted for 1 hour at 50° C. After discharging the obtained reaction solution to 100 ml of 1N hydrochloric acid, the mixture was sufficiently stirred and the precipitate was filtered. The resulting cake was washed with water. The cake was added to 200 ml of an aqueous sodium hydroxide solution having a 1% by weight concentration and completely dissolved by heating with stirring. Next, the dissolved solution was stirred for 3 hours after cooling to room temperature. Then, the liquid containing the obtained precipitate was filtered, and then the cake was washed with water. […] Note that the melting point of ED2AP was 249° C., which was water-soluble.
3 ml of dimethylformamide was added to a reactor and the exterior of the reactor was cooled with ice water. 1.75 g of phosphorus oxychloride was slowly dropped into the reactor (Reaction Solution A). In another reactor, 1.78 g of edaravone was dissolved in 5 ml of dimethylformamide (Reaction Solution B). Under room temperature, the reaction solution B was slowly added to the reaction solution A, and the resulting mixture was allowed to react for 1 hour with the end of addition (Reaction Solution C) being a reference. In another reactor, 1.81 g of 3-methyl-1-phenyl-5-pyrazolone was added to 8 ml of chloroform and dissolved (Reaction Solution D). Under room temperature, the reaction solution C was slowly added to the reaction solution D, followed by stirring for 20 minutes and further stirring at 70° C. for 1 hour. To the resultant, 0.2 g of water was added and stirred for another 2 hours. The obtained reaction solution was discharged into 100 ml of water and extracted with a mixed solvent of toluene/ethyl acetate=1/1 (volume ratio). After condensation of the obtained extract, column purification was performed to obtain 2.92 g of yellow crystal of the compound of the formula (10) having the following physical properties.
1.00 g of edaravone, 0.72 g of paraformaldehyde, and 20 ml of formic acid were added to a reaction flask and stirred overnight for 20 hours at 70° C. The obtained reaction solution was discharged into 80 ml of water and extracted with a mixed solvent of toluene/ethyl acetate=1/1 (volume ratio). When the extract was condensed to about two-thirds, crystals were precipitated. Further, the resultant was cooled to room temperature, and sufficiently crystallized, and then filtered. The obtained cake was washed with toluene to obtain 0.88 g of pale yellow crystal of the compound of the formula (14) having the following physical properties.
In Example 1(1), synthesis was performed in the same manner as described above except that 3-methyl-1-ethyl-5-pyrazolone was used instead of edaravone to obtain red crystal of BisEp-C3 having the following physical properties. Note that BisEp-C3 was water-soluble.
In Example 1(2), synthesis was performed in the same manner as described above except that 3-methyl-1-ethyl-5-pyrazolone was used instead of edaravone to obtain yellow crystal of BisEp-C1 having the following physical properties. Note that BisEp-C1 was water-soluble.
In Example 1(3), synthesis was performed in the same manner as described above except that 3-methyl-1-ethyl-5-pyrazolone was used instead of edaravone, then the obtained reaction solution was condensed, and the resultant was subjected to column purification to obtain colorless crystal of BisEp-C1 (H2) having the following physical properties. Note that BisEp-C1 (H2) was water-soluble.

[3] = tested on: neutrophils isolated from the peripheral blood of healthy individuals; test: Superoxide production amount of PMA-stimulated neutrophils, CLA chemiluminescence; assay type: cell-based, human; conditions: 0-200 μmol/l or 0-5000 μmol/l; PMA 100 ng/ml; control being 100; FIG. 2
Experimental: For examining the reactive oxygen-eliminating effect of the antioxidant of the present invention, the superoxide produced by the neutrophils when the neutrophils isolated from the peripheral blood of healthy individuals were stimulated with PMA (phorbor-12-myristate-13-acetate) was used. The superoxide production amount was measured by chemiluminescence using CLA (2-methyl-6-pjenyl-3, 7-dihydroimidazo[1,2-a]pyrazine-3-one).
(§1) First, ED2AP, BisEp-C3, edaravone, BisEp-C1, or BisEp-C1 (H2) was added to a neutrophil of 4×10^5 cells per sample so as to achieve a predetermined concentration (0, 12.5, 25, 50, 100, or 200 μmol/l, or 0, 125, 250, 500, 1250, 2500, or 5000 μmol/l) with 5 μmol of CLA, and then the cell suspension was seeded in flat-bottomed 96-well plates. The volume of the suspension was 200 μl/well, and phenol red free Ca+, Mg+ HBSS was used as the solution. In addition, the neutrophil was stimulated by adding PMA so as to achieve a concentration of 100 ng/ml. After the stimulation, a plate reader (Envision 2104 Multilabel Reader, produced by Perkin Elmer Co., Ltd.) was used to measure the chemiluminescence value over time for 30 minutes with the PMA stimulation time being a reference. The measurement interval was 30 seconds. The sum of the chemiluminescence values obtained every 30 seconds for 30 minutes was taken as the superoxide production amount. In addition, as a control, the superoxide production amount was measured in the same manner except that each compound was not added. The relative value of the superoxide production amount when each compound was added was calculated with the superoxide production amount of the control being 100.

[4] = tested on: neutrophils isolated from the peripheral blood of healthy individuals; test: Superoxide production amount of PMA-stimulated neutrophils with PBS solutions stored for 10 days vs immediately after preparation; assay type: cell-based, human; conditions: PBS solution stored for 10 days vs immediately after preparation; 0, 6.25, 12.5, 25, 50, 100 or 20 μmol/l; FIG. 4
Experimental: as §1
PBS solutions of ED2AP, BisEp-C3, and edaravone were prepared in the same manner as in Example 2 and stored for 10 days. The superoxide production amount was calculated in the same manner as in Example 4 except that the PBS solution after storage was added instead of ED2AP, BisEp-C3, edaravone, BisEp-C1 or BisEp-C1 (H2) so as to achieve a predetermined concentration (0, 6.25, 12.5, 25, 50, 100 or 20 μmol/l) of ED2AP, BisEp-C3 or edaravone. Further, PBS solutions of ED2AP, BisEp-C3, and edaravone were prepared in the same manner as in Example 2, and the superoxide production amount was calculated in the same manner except that the PBS solution immediately after preparation was used. Then, the relative value of the superoxide production amount of each sample was calculated with the superoxide production amount of the sample of 0 μmol/l being 100.

[5] = Storage stability in pH7.4-PBS or pure water at 37° C. protected from light, residual rate by HPLC; assay type: physicochemical; conditions: 200 μmol/l; for Residual rate (%) After 1 week / Residual rate (%) After 2 weeks: 37° C., protected from light; for Residual rate (%) Initial concentration: initial concentration (reference 100%)
Experimental: The storage stability of edaravone, EMPO, ED2AP, and BisEp-C3 of the following formula (A) were examined. Specifically, edaravone, EMPO, ED2AP, and BisEp-C3 were dissolved in pH7.4-PBS or pure water so as to have a final concentration of 200 μmol/l to prepare dissolved solutions of these compounds. When the compounds were difficult to be dissolved, they were dissolved in an ultrasonic cleaner with warm water at 40° C.
Under the measurement conditions for HPLC described below, the initial concentration was quantified, and then each solution was stored in an oven, which was protected from light, at 37° C., and quantified under the same measurement conditions after 1 week and 2 weeks, to determine residual rate (%) with the initial concentration (100%) being a reference.
Measurement conditions for HPLC
PDA detector (Format: SPD-M20A) HPLC Assay Conditions:
Column: Atlantis dC18 5 μm (250×4.6 mm I.D.; produced by Waters)
Column temperature: 45° C.
Detection method: UV (254 nm)
Eluate A: pH3 buffer solution (adjusted to pH3 by adding phosphoric acid to 0.05M KH2PO4 aqueous solution)/methanol=90/10

rat neuroid cells B50 [6] = test: Toxicity evaluation on byproducts after reaction with singlet oxygen, cell viability; assay type: cell-based; conditions: 50, 100, or 200 μmol/l reacted with RB + G-LED 525 nm in cell-free system; FIG. 6
Experimental: In a cell-free system, the RB was added to media (50% FCS-containing RPMI-1640 media) containing edaravone, ED2AP, and BisEp-C3 having a predetermined concentration (50, 100, or 200 μmol/l) and then irradiated with LED (G-LED) at 525 nm to generate singlet oxygen, whereby reacting each compound with singlet oxygen. The cell viability was measured in the same manner as in Example 7(1), except that the culture solution after the reaction was used as a medium of the neuroid cell B50. As a negative control (NC), the cell viability was measured in the same manner except that each compound and […] were not added in the cell-free system. Further, as a control (RB), the cell viability was measured in the same manner except that each compound was not added and only […] was added in the cell-free system.

rat neuroid cells B50 [7] = test: Toxicity evaluation, cell viability by Alamar Blue after 24 hours; assay type: cell-based; conditions: 12.5, 25, 50, 100, or 200 μmol/l, FIG. 5
Experimental: Rat neuroid cells B50 were seeded in 12-well plates and then cultured. Edaravone (RC), ED2AP, or BisEp-C3 was added to each well so as to achieve a predetermined concentration (12.5, 25, 50, 100, or 200 μmol/l), and then incubated for 24 hours at 37° C. and 5% CO2. Cell viability in each well after the culture was measured using Alamar Blue.

[N-]=[N+]=[N-] [sodium azide, reference compound]
relative value of the fluorescence intensity (rat neuroid cells B50 [1]; 4 mmol/l, negative control being 100, RB control 33.17): 80.81

CCN1N=C(C)/C(=C/c2c(C)nn(CC)c2O)C1=O [BisEp-C1]
solubility in water [2]: water-soluble
relative value of the superoxide production amount [3]: suppressed the superoxide production amount in a concentration-dependent manner

CC1=NN(c2ccccc2)C(=O)C1 [Edaravone, 5-methyl-2-phenyl-2,4-dihydro-3H-pyrazol-3-one, reference compound]
superoxide-eliminating ability after storage [4]: remarkably lowered after storage for 10 days
relative value of the superoxide production amount [3]: suppressed the superoxide production amount in a concentration-dependent manner
Residual rate (%) After 1 week ([5]; Pure water): 82.8%
Residual rate (%) After 2 weeks ([5]; Pure water): 80.4%
Residual rate (%) Initial concentration ([5]; Pure water): 100%
Residual rate (%) After 1 week ([5]; pH 7.4-PBS): 31.2%
Residual rate (%) After 2 weeks ([5]; pH 7.4-PBS): 0.2%
Residual rate (%) Initial concentration ([5]; pH 7.4-PBS): 100%
cytotoxicity of the byproducts after reaction with singlet oxygen (cell viability) (rat neuroid cells B50 [6]): not cytotoxic at any concentration
cytotoxicity (cell viability) (rat neuroid cells B50 [7]): not cytotoxic at any concentration
recovery of the fluorescence intensity (cellular activity) (rat neuroid cells B50 [1]; 0, 12.5, 25, 50, or 100 μmol/l, FIG. 3): not recovered

CCn1nc(C)c(Cc2c(C)nn(CC)c2O)c1O [BisEp-C1 (H2), 4,4′-methylenebis[1-ethyl-3-methyl-1H-pyrazol-5-ol]]
solubility in water [2]: water-soluble
relative value of the superoxide production amount [3]: suppressed the superoxide production amount in a concentration-dependent manner

Cc1nn(-c2ccccc2)c(O)c1Cc1c(C)nn(-c2ccccc2)c1O [formula (14), 4,4′-methylenebis[3-methyl-1-phenyl-1H-pyrazol-5-ol]]
solubility in water [2]: poorly soluble in water

CCN1N=C(C)CC1=O [EMPO, reference compound]
Residual rate (%) After 1 week ([5]; Pure water): 6.3%
Residual rate (%) After 2 weeks ([5]; Pure water): 1.4%
Residual rate (%) Initial concentration ([5]; Pure water): 100%
Residual rate (%) After 1 week ([5]; pH 7.4-PBS): 0.0%
Residual rate (%) After 2 weeks ([5]; pH 7.4-PBS): 0.0%
Residual rate (%) Initial concentration ([5]; pH 7.4-PBS): 100%

CC1=NN(c2ccccc2)C(=O)/C1=C\c1c(C)nn(-c2ccccc2)c1O [formula (10), 2,4-dihydro-4-[(5-hydroxy-3-methyl-1-phenyl-1H-pyrazol-4-yl)methylene]-5-methyl-2-phenyl-3H-pyrazol-3-one]
solubility in water [2]: poorly soluble in water
